Test results reported in PubChem BioAssay AID651703 (Broad Institute, 2012).

biological target: Transforming acidic coiled-coil-containing protein 3 (Homo sapiens) (UniProt Q9Y6A5); test: ARNT/TACC3 interaction disruptors, potency, confirmation, biochemical, AlphaScreen, cherry-picked samples (AID 651703); conditions: AlphaScreen His-ARNT PAS-B / GST-TACC3 binding, luminescence;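 further: TACC3 partner is the GST-tagged E629A mutant dimer; hits lower the signal meaning they disrupt ARNT binding to TACC3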

| Compound | AC50 [µM] |
| --- | --- |
| COc1ccc(O)c(/C=N\NC(=O)CCn2nnc3ccccc32)c1 | 33.4 |
| O=C(Nc1nnc(SCc2ccc(F)cc2)s1)c1ccccn1 | 7.06 |
| Cc1ccc(NC(=O)CNCc2ccccn2)cc1S(=O)(=O)N(C)C | 8.68 |
| COc1cc(CNCc2ccccn2)ccc1OCc1ccc(Cl)cc1 | 60.7 |
| O=C(N[C@@H]1CC[C@@H](CCn2cc(-c3ccccn3)nn2)O[C@@H]1CO)c1cccnc1 | 13.1 |
| CO[C@@H]1CN(C)C(=O)c2ccc(NC(=O)c3ccccn3)cc2OC[C@@H](C)N(Cc2ccccn2)C[C@H]1C | 7.1 |
| Cc1nc(Nc2ccc(C(=O)O)cc2)nc(Nc2ccc(C(=O)O)cc2)c1[N+](=O)[O-] | 22.1 |
| COc1ccc(Cc2nnc(NN)[nH]c2=O)cc1OC | 6.72 |
| O=C(NCCCn1ccnc1)Nc1ccc(Cl)c(Cl)c1 | 25.2 |
| O=C(N/N=C/c1cc([N+](=O)[O-])ccc1O)c1ccncc1 | 1.01 |
| C/C=C/c1ccc([C@H]2[C@@H](CO)N(Cc3ccccn3)[C@H]2CNC(C)=O)cc1 | 45.9 |
| O=S(=O)(N[C@@H]1CC[C@@H](CCn2cc(-c3ccccn3)nn2)O[C@@H]1CO)c1cccc(F)c1 | 13.4 |
| O=C(N[C@H]1CC[C@@H](CCn2cc(-c3ccccn3)nn2)O[C@@H]1CO)c1ccc(F)cc1 | 14.8 |
| O=C(CSc1n[nH]c(=O)[nH]c1=O)N/N=C/c1ccccc1O | 43 |
| COc1ccccc1Nc1nc(N)nc(CN(C)C2CCCCC2)n1 | 37.7 |
| c1ccc(-c2nnc(-c3ccccn3)nn2)nc1 | 28.8 |
| Cc1cccc(NC(=O)CCC(=O)N/N=C/c2ccc(O)cc2O)c1 | 22.4 |
| Cc1ccc(/C=N/Nc2cn[nH]c(=O)n2)o1 | 26.3 |
| c1ccc(-c2nnc(-c3ccccn3)nc2NCc2ccccn2)cc1 | < 0.5 |

| Compound | AC50 [µM] |
| --- | --- |
| O=C(Oc1c(CN2CCOCC2)cc(Cl)c2cccnc12)c1ccccc1Br | 10.3 |
| COc1ccc2ccccc2c1CNCc1ccccn1 | 24.8 |
| CC1CCCN(S(=O)(=O)c2ccc(C(=O)Nc3nnc(C4CC4)o3)cc2)C1 (configuration not stated) | 31.9 |
| CC(=O)Nc1cccc(NC(=O)CSc2ccc(-c3ccccn3)nn2)c1 | 2.78 |
| O=C(CSc1n[nH]c(-c2ccccn2)n1)Nc1cccc(Cl)c1 | 4.78 |
| CC(=O)Nc1cccc(C(=O)OCC(=O)Nc2nnc(-c3ccccc3)o2)c1 | 16.3 |
| CC(NC1=CC(=O)c2cccnc2C1=O)C(O)c1ccccc1 (configuration not stated) | 15.5 |
| Cc1c(CCO)c(=O)n(-c2ccccc2)n1S(=O)(=O)c1c(Cl)cc(Cl)cc1Cl | 39.8 |
| Cc1ccc(NC(=O)CSc2n[nH]c(-c3ccccn3)n2)cc1 | 2.26 |
| Cc1nnc(NC(=O)C2CCN(S(=O)(=O)c3cc([N+](=O)[O-])ccc3Cl)CC2)o1 | 21.9 |
| CC(=O)Nc1ccc(Oc2nc(-c3ccccn3)nc3ccccc23)cc1 | 7.02 |
| O=S(=O)(N[C@@H]1CC[C@H](CCn2cc(-c3ccccn3)nn2)O[C@@H]1CO)c1cccc(Cl)c1 | 16.7 |
| CSCc1cc(N(C)c2ccccc2)nc(-c2ccccn2)n1 | 5.86 |
| COCc1cc(=O)[nH]c(Nc2nc3ccc(C)cc3o2)n1 | 7.59 |
| COc1cc2c(cc1O)C[C@H]1NCCc3cc4c(c-2c31)OCO4 | 27.7 |
| CCCC(=O)NC(c1ccccc1)c1ccc2cccnc2c1O (configuration not stated) | 4.6 |
| COc1cc(-c2nnc(NC(=O)CS(=O)(=O)c3ccc(F)cc3)o2)cc(OC)c1OC | 24.3 |
| N#CC1(c2ccccc2)CCN(Cc2ccc(O)c3ncccc23)CC1 | 3.66 |
| NS(=O)(=O)c1ccc(N=Nc2c[nH]c(=O)c(O)c2)cc1 | 57.9 |

| Compound | AC50 [µM] |
| --- | --- |
| CNc1nc(C(=O)O)nc(N2CCOCC2)n1 | 11.6 |
| COc1ccc(C2C(C#N)=C(N)Oc3n[nH]c(-c4ccccn4)c32)c(OC)c1OC (configuration not stated) | 53.3 |
| N#Cc1ccc(OCC(=O)NCCCn2ccnc2)cc1 | 8.65 |
| COc1ccccc1-c1nnc(NC(=O)Cc2ccccc2)o1 | 35 |
| O=S(=O)(c1ccccc1)c1nc(-c2ccco2)oc1Nc1ccccc1 | 55.5 |
| O=C(CNCc1ccccn1)Nc1ccc([N+](=O)[O-])cc1C(=O)Nc1ccccc1F | 3.05 |
| Cc1[nH][nH]c(=O)c1C(c1ccc(-c2ccc(C(=O)O)cc2)o1)c1c(C)[nH][nH]c1=O | 64.1 |
| OCCN(Cc1cccnc1)Cc1ccccn1 | 2.28 |
| O=C(COc1ccc([N+](=O)[O-])cc1)Nc1nc(-c2ccccn2)cs1 | 6.57 |
| O=C(Cn1cnc([N+](=O)[O-])n1)N/N=C/c1ccc(O)cc1O | 4.97 |
| Cc1cc(=O)[nH]c(-n2[nH]c3c(c2=O)CCCC3)n1 | 39.3 |
| Cc1cc(C)c(S(=O)(=O)N2CCOC2CNC(=O)C(=O)NCCCn2ccnc2)c(C)c1 (configuration not stated) | 5.58 |
| CCOc1cccc(/C=N/NC(=O)c2cc(-c3cccn3C)n[nH]2)c1O | 17.1 |
| COc1ccc(NC(=O)N[C@H]2CC[C@H](CCn3cc(-c4ccccn4)nn3)O[C@@H]2CO)cc1 | 12 |
| C/C(=N\NC(=O)C1CCCN(S(=O)(=O)c2ccccc2)C1)c1ccccn1 (configuration not stated) | 11.1 |
| Cc1cccc(CSc2cccc3cccnc23)c1 | 1.79 |
| Oc1cccc(/C=N/Nc2ccc(Cl)nn2)c1O | 1.5 |
| Cc1ccnc2nc(C(=O)Nc3nc(-c4ccccn4)cs3)nn12 | 2.53 |
| OCCN1CCN(Cc2cc(Cl)c3cccnc3c2O)CC1 | 1.34 |
